Source: ChEMBL document CHEMBL3991601, “The target landscape of clinical kinase drugs” (Science, 2017)
Activity calls are given as the source filed them.

Tests used:
[1] = molecular target: Inosine-5'-monophosphate dehydrogenase 2 (Homo sapiens, UniProt P12268)
[2] = molecular target: T1, ATP-dependent RNA helicase DDX42 (Homo sapiens, UniProt Q86XP3)
T1 sequence (Q86XP3 whole entry): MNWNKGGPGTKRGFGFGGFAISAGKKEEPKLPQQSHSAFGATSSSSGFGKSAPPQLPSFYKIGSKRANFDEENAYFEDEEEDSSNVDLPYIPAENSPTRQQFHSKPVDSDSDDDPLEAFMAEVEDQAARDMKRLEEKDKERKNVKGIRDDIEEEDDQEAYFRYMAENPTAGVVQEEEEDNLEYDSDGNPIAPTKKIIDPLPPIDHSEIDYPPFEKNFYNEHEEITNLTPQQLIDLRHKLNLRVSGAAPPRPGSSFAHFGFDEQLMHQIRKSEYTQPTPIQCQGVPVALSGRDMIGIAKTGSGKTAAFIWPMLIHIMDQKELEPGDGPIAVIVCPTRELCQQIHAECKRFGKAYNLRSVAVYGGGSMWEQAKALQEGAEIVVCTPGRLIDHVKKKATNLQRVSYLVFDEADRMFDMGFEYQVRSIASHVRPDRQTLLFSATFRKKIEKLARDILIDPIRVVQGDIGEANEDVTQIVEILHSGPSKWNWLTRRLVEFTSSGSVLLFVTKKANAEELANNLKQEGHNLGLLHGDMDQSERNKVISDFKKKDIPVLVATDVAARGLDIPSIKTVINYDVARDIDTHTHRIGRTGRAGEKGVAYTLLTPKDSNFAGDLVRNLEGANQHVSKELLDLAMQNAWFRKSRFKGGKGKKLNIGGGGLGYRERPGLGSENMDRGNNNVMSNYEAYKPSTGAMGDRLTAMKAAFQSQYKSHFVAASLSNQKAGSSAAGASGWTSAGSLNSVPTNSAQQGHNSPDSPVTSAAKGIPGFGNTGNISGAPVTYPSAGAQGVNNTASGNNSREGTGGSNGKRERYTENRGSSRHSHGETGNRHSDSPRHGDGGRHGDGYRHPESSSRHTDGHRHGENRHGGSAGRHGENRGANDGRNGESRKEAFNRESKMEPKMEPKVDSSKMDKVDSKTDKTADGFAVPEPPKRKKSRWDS

[3] = molecular target: TRAF2 and NCK-interacting protein kinase (Homo sapiens, UniProt Q9UKE5)
[4] = molecular target: Mitotic checkpoint serine/threonine-protein kinase BUB1 (Homo sapiens, UniProt O43683)
[5] = molecular target: T2, Glycogen phosphorylase, brain form (Homo sapiens, UniProt P11216)
T2 sequence (P11216 whole entry): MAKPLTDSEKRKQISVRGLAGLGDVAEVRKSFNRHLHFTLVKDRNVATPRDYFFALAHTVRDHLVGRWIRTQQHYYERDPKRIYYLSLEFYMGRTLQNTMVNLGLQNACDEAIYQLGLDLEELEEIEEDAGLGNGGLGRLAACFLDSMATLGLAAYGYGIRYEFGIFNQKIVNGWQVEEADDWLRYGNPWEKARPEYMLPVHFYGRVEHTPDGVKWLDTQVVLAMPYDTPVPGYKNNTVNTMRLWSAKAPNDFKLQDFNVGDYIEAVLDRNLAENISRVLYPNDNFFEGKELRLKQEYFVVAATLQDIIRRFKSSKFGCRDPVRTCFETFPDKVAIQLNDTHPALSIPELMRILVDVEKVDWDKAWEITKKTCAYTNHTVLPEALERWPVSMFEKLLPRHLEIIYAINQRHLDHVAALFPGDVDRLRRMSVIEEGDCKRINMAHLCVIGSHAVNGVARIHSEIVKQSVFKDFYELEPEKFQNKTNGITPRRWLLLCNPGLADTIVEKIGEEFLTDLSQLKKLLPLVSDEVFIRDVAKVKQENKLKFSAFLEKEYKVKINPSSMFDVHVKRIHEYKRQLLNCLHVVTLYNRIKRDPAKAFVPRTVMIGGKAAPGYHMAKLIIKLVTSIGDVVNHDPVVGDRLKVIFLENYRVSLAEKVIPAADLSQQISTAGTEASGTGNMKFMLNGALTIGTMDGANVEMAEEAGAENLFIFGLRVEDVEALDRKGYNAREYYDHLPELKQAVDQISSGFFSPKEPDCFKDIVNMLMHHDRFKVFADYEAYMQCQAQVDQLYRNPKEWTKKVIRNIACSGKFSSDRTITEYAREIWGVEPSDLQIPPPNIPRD

[6] = molecular target: RAC-alpha serine/threonine-protein kinase (Homo sapiens, UniProt P31749)
Activin receptor type-1 = molecular target: T3, Activin receptor type-1 (Homo sapiens, UniProt Q04771)
T3 sequence (Q04771 whole entry): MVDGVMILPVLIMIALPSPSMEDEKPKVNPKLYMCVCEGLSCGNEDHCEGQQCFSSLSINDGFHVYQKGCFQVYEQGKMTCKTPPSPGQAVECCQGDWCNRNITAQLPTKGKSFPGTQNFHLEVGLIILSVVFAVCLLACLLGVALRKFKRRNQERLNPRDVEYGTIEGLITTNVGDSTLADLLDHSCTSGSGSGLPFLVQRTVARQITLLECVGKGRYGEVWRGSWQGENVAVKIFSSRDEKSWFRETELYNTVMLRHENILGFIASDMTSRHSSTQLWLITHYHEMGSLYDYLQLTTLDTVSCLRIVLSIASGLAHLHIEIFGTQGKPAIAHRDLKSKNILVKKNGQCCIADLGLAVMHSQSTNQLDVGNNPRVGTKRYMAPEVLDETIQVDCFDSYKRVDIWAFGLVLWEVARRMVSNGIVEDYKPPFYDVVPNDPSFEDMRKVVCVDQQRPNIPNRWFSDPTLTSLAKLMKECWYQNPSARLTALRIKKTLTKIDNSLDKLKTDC

[7] = molecular target: T4, Serine/threonine-protein kinase ULK3 (Homo sapiens, UniProt Q6PHR2)
T4 sequence (Q6PHR2 whole entry): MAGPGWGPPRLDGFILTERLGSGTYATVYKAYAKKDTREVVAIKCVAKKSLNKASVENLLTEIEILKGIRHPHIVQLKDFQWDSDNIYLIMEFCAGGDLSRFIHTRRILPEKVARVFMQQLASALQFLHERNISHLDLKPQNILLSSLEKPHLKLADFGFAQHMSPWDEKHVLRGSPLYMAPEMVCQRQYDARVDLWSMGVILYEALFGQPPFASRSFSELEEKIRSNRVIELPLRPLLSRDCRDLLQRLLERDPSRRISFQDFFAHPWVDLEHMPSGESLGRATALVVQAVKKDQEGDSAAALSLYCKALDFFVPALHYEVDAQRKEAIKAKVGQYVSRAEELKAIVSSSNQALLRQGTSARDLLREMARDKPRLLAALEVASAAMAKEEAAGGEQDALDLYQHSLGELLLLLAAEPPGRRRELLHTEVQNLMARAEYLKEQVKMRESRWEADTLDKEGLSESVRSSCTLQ

Measured: Kd
Also: in the data inactive means no Kd found up to 30 µM.

Mitotic checkpoint serine/threonine-protein kinase BUB1, sequence (O43683 whole entry): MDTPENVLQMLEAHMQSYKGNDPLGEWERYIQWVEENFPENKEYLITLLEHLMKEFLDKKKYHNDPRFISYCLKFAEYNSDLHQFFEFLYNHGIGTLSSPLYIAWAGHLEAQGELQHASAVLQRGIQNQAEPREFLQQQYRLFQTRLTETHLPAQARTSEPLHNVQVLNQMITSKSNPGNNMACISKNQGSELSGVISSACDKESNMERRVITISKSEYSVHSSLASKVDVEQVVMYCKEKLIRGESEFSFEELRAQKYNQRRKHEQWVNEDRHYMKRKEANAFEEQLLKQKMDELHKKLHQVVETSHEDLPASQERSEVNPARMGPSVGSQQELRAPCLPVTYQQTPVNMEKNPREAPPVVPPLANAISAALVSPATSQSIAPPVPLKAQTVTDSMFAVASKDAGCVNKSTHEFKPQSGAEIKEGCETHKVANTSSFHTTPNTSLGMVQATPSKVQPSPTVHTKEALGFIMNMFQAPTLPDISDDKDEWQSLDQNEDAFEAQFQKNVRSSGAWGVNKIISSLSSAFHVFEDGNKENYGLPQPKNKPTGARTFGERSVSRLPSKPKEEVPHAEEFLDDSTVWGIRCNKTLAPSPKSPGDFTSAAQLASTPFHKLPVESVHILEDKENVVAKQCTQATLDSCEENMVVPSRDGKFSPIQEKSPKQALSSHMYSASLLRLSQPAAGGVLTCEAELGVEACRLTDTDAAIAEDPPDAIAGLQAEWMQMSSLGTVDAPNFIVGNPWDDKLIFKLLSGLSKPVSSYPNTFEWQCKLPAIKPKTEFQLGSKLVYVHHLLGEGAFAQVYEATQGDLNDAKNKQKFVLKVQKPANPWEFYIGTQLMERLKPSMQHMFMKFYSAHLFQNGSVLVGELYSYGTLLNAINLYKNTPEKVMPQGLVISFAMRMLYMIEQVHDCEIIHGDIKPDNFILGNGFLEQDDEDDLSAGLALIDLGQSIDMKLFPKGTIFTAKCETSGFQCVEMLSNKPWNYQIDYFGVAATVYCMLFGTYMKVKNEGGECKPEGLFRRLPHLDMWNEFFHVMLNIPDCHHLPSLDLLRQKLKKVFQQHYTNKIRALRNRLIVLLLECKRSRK
RAC-alpha serine/threonine-protein kinase, sequence (P31749 whole entry): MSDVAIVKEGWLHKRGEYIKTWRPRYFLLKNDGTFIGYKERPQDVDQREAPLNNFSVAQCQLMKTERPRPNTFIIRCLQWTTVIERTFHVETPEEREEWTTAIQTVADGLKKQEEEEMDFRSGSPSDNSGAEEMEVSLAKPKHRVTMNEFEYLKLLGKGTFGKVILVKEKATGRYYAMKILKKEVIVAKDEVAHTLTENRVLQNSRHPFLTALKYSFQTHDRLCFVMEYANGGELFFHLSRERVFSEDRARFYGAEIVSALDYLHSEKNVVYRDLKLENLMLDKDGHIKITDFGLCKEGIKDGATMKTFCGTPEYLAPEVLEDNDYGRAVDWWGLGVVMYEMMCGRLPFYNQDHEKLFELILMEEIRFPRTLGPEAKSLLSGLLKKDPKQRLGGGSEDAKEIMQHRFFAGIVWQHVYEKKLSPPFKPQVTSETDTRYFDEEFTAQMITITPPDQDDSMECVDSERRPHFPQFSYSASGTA
TRAF2 and NCK-interacting protein kinase, sequence (Q9UKE5 whole entry): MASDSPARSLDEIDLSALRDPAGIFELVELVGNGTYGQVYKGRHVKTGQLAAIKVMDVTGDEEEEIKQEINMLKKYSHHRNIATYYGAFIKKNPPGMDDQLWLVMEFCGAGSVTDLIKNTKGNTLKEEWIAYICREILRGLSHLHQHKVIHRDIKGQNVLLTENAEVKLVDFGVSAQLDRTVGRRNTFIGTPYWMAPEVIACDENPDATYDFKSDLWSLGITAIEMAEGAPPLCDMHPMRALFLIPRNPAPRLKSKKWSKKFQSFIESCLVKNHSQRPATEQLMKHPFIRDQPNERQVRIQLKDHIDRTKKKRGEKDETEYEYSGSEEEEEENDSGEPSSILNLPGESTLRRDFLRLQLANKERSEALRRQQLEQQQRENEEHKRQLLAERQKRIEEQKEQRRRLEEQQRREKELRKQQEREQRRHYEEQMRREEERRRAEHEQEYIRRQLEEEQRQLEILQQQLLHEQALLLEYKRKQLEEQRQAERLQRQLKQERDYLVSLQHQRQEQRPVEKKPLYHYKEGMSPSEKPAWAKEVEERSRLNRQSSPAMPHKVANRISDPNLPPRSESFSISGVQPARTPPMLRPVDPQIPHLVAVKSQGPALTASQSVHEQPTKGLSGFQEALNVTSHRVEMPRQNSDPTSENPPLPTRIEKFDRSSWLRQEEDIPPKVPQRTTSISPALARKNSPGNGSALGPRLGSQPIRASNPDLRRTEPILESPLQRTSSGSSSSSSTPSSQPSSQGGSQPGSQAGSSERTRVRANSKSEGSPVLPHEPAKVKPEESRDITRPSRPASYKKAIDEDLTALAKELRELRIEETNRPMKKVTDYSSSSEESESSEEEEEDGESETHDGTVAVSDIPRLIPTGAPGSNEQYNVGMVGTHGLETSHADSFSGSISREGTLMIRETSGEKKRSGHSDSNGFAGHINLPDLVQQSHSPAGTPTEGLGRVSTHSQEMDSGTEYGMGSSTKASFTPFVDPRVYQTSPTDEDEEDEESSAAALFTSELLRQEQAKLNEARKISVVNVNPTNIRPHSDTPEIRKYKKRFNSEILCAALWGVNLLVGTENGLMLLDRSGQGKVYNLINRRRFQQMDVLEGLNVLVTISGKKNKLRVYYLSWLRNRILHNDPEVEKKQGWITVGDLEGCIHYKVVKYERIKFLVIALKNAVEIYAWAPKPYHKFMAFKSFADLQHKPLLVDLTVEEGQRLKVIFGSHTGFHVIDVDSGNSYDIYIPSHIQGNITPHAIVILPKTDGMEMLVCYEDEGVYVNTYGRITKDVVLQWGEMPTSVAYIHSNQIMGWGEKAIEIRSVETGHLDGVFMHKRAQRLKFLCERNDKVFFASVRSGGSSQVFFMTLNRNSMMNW

C=CCn1c(=O)c2cnc(Nc3ccc(N4CCN(C)CC4)cc3)nc2n1-c1cccc(C(C)(C)O)n1 [ADAVOSERTIB]
inactive: [1] > 30 µM | [2] > 30 µM | [3] > 30 µM | [4] > 30 µM | [5] > 30 µM | [6] > 30 µM | Activin receptor type-1 > 30 µM | [7] > 30 µM

COc1cc2ncnc(Nc3ccc(F)c(Cl)c3)c2cc1NC(=O)/C=C/CN1CCCCC1 [DACOMITINIB ANHYDROUS]
inactive: [1] > 30 µM | [2] > 30 µM | [3] > 30 µM | [4] > 30 µM | [5] > 30 µM | [6] > 30 µM | Activin receptor type-1 > 30 µM | [7] > 30 µM

COCCN1CCN(Cc2ccc(-c3n[nH]c4c3C(=O)c3c(NC(=O)NN5CCOCC5)cccc3-4)cc2)CC1 [RGB-286638]
inactive: [1] > 30 µM | [2] > 30 µM | [3] > 30 µM | [4] > 30 µM | [5] > 30 µM | [6] > 30 µM | Activin receptor type-1 > 30 µM | [7] > 30 µM

O=C(NOC[C@H](O)CO)c1ccc(F)c(F)c1Nc1ccc(I)cc1F [MIRDAMETINIB]
inactive: [1] > 30 µM | [2] > 30 µM | [3] > 30 µM | [4] > 30 µM | [5] > 30 µM | [6] > 30 µM | Activin receptor type-1 > 30 µM | [7] > 30 µM

CNC(=O)c1cccc(-c2ccc3c(N4CCOC[C@@H]4C)nc(N4CCOC[C@@H]4C)nc3n2)c1 [VISTUSERTIB]
inactive: [1] > 30 µM | [2] > 30 µM | [3] > 30 µM | [4] > 30 µM | [5] > 30 µM | [6] > 30 µM | Activin receptor type-1 > 30 µM | [7] > 30 µM

COc1cc2nccc(Oc3ccc(NC(=O)C4(C(=O)Nc5ccc(F)cc5)CC4)cc3)c2cc1OC [CABOZANTINIB]
inactive: [1] > 30 µM | [2] > 30 µM | [3] > 30 µM | [4] > 30 µM | [5] > 30 µM | [6] > 30 µM | Activin receptor type-1 > 30 µM | [7] > 30 µM

Cc1cc(Nc2nc(N[C@@H](C)c3ncc(F)cn3)ncc2Cl)n[nH]1 [AZD-1480]
inactive: [1] > 30 µM | [2] > 30 µM | [3] > 30 µM | [4] > 30 µM | [5] > 30 µM | [6] > 30 µM | Activin receptor type-1 > 30 µM | [7] > 30 µM

COc1cccc2cc(-c3nc([C@H]4CC[C@H](C(=O)O)CC4)n4ncnc(N)c34)[nH]c12 [OSI-027]
inactive: [1] > 30 µM | [2] > 30 µM | [3] > 30 µM | [4] > 30 µM | [5] > 30 µM | [6] > 30 µM | Activin receptor type-1 > 30 µM | [7] > 30 µM

O=c1[nH]c([C@@H]2CCCN2)nc2c1oc1ccc(Cl)cc12
inactive: [1] > 30 µM | [2] > 30 µM | [3] > 30 µM | [4] > 30 µM | [5] > 30 µM | [6] > 30 µM | Activin receptor type-1 > 30 µM | [7] > 30 µM

C=CC(=O)Nc1cccc(Nc2nc(Nc3ccc(N4CCN(C(C)=O)CC4)cc3OC)ncc2C(F)(F)F)c1 [ROCILETINIB]
inactive: [1] > 30 µM | [2] > 30 µM | [3] > 30 µM | [5] > 30 µM | [6] > 30 µM | Activin receptor type-1 > 30 µM | [7] > 30 µM

NC[C@@](O)(c1ccc(Cl)cc1)c1ccc(-c2cn[nH]c2)cc1 [AT-13148]
inactive: [1] > 30 µM | [2] > 30 µM | [3] > 30 µM | [5] > 30 µM | [6] > 30 µM | Activin receptor type-1 > 30 µM | [7] > 30 µM

Cc1c(NC(=O)OC[C@@H]2COCCN2)cn2ncnc(Nc3ccc4c(cnn4Cc4cccc(F)c4)c3)c12 [AC-480]
inactive: [2] > 30 µM | [3] > 30 µM | [4] > 30 µM | [5] > 30 µM | [6] > 30 µM | Activin receptor type-1 > 30 µM | [7] > 30 µM
